Measurements as given in publication PMC9855970, “Cysteine Biosynthesis in Campylobacter jejuni: Substrate Specificity of CysM and the Dualism of Sulfide” (Biomolecules, 2022).

Target: T1, CysM (Cj0912) (Campylobacter jejuni, UniProt P71128)
T1 sequence (P71128 1-299): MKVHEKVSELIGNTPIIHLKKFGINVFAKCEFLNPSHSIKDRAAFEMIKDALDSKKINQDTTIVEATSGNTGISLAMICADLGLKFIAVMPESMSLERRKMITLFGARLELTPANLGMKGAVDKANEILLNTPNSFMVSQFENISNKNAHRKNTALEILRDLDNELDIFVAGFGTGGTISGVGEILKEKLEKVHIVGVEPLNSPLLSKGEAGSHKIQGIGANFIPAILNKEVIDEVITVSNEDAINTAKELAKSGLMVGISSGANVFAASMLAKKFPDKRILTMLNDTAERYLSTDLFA
Assay: UV-Vis absorbance at […] nm of purified enzyme
Assay type: binding
Conditions: 100 mM Tris-HCl pH 7.4, 50 mM NaCl; co-purified, covalent internal Schiff base with lysine

Cc1ncc(COP(=O)(O)O)c(C=O)c1O [PLP, pyridoxal 5′-phosphate]
UV-Vis absorbance at 412 nm of purified enzyme: Cj0912 purified with the PLP cofactor in situ
